Test system: MV-4-11 cells
Test: Gene expression microarray analysis (Affymetrix PrimeView) and GSEA
Format: cell-based, human
Design: RFU PODN (11730768_x_at) / Fold change /veh PODN (11730768_x_at) / RFU LINC00158 (11744669_a_at) / Fold change /veh LINC00158 (11744669_a_at) / RFU DUSP10 (11751237_a_at) / Fold change /veh DUSP10 (11751237_a_at) / RFU ID3 (11757404_x_at) / Fold change /veh ID3 (11757404_x_at) / RFU PLEKHG5 (11737974_s_at) / Fold change /veh PLEKHG5 (11737974_s_at) / RFU LRRC4B (11730491_at) / Fold change /veh LRRC4B (11730491_at) / RFU GIMAP4 (11747438_a_at) / Fold change /veh GIMAP4 (11747438_a_at) / RFU KRT8 (11758183_x_at) / Fold change /veh KRT8 (11758183_x_at) / RFU CNN1 (11734310_a_at) / Fold change /veh CNN1 (11734310_a_at) / RFU VPS37D (11726825_at) / Fold change /veh VPS37D (11726825_at) / RFU C10orf10 (11716522_x_at) / Fold change /veh C10orf10 (11716522_x_at) / RFU KIR2DL2 /// KIR2DL4 /// KIR2DL5A /// KIR2DL5B /// KIR2DS1 /// KIR2DS2 /// KIR2DS3 /// KIR2DS4 /// KIR3DL3 /// KIR3DL3 /// KIR3DS1 (11738374_at) / Fold change /veh KIR2DL2 /// KIR2DL4 /// KIR2DL5A /// KIR2DL5B /// KIR2DS1 /// KIR2DS2 /// KIR2DS3 /// KIR2DS4 /// KIR3DL3 /// KIR3DL3 /// KIR3DS1 (11738374_at) / RFU C1QL1 (11718748_at) / Fold change /veh C1QL1 (11718748_at) / RFU TMPRSS4 (11747572_a_at) / Fold change /veh TMPRSS4 (11747572_a_at) / RFU HAMP (11756126_x_at) / Fold change /veh HAMP (11756126_x_at) / RFU RNFT2 (11725882_a_at) / Fold change /veh RNFT2 (11725882_a_at) / RFU NR4A2 (11747474_a_at) / Fold change /veh NR4A2 (11747474_a_at) / RFU ABCC12 (11746883_a_at) / Fold change /veh ABCC12 (11746883_a_at) / RFU TMEM136 (11760407_x_at) / Fold change /veh TMEM136 (11760407_x_at) / RFU CLDN22 /// WWC2 (11732394_at) / Fold change /veh CLDN22 /// WWC2 (11732394_at) / RFU HLA-DPB1 (11760878_x_at) / Fold change /veh HLA-DPB1 (11760878_x_at) / RFU SPINT1 (11716480_a_at) / Fold change /veh SPINT1 (11716480_a_at) / RFU GAP43 (11754022_s_at) / Fold change /veh GAP43 (11754022_s_at) / RFU A4GNT (11735810_at) / Fold change /veh A4GNT (11735810_at) / RFU PRB3 (11715151_x_at) / Fold change /veh PRB3 (11715151_x_at) / RFU TUBB4B (11761932_at) / Fold change /veh TUBB4B (11761932_at) / RFU CAPN14 (11732068_a_at) / Fold change /veh CAPN14 (11732068_a_at) / RFU TMCC2 (11721928_a_at) / Fold change /veh TMCC2 (11721928_a_at) / RFU IRGQ (11745062_a_at) / Fold change /veh IRGQ (11745062_a_at) / RFU FAM174B (11720279_a_at) / Fold change /veh FAM174B (11720279_a_at) / RFU TMPRSS4 (11748680_a_at) / Fold change /veh TMPRSS4 (11748680_a_at) / RFU FAM212B (11763350_a_at) / Fold change /veh FAM212B (11763350_a_at) / RFU PLEKHG5 (11743358_a_at) / Fold change /veh PLEKHG5 (11743358_a_at) / RFU ZSCAN30 (11745921_a_at) / Fold change /veh ZSCAN30 (11745921_a_at) / RFU CMKLR1 (11741424_a_at) / Fold change /veh CMKLR1 (11741424_a_at) / RFU LOC101060620 /// MAPK8IP1 (11723275_at) / Fold change /veh LOC101060620 /// MAPK8IP1 (11723275_at) / RFU SPTSSB (11747773_x_at) / Fold change /veh SPTSSB (11747773_x_at) / RFU PRSS12 (11739890_at) / Fold change /veh PRSS12 (11739890_at) / RFU BIN1 (11741810_x_at) / Fold change /veh BIN1 (11741810_x_at) / RFU WNT11 (11732464_a_at) / Fold change /veh WNT11 (11732464_a_at) / RFU C10orf10 (11716521_a_at) / Fold change /veh C10orf10 (11716521_a_at) / RFU C5orf56 (11738089_at) / Fold change /veh C5orf56 (11738089_at) / RFU CYB561 (11721691_x_at) / Fold change /veh CYB561 (11721691_x_at) / RFU ANKRD19P (11752326_a_at) / Fold change /veh ANKRD19P (11752326_a_at) / RFU OR2T12 /// OR2T33 /// OR2T8 (11738714_s_at) / Fold change /veh OR2T12 /// OR2T33 /// OR2T8 (11738714_s_at) / RFU VCAN (11748164_a_at) / Fold change /veh VCAN (11748164_a_at) / RFU JSRP1 (11732532_at) / Fold change /veh JSRP1 (11732532_at) / RFU KRTAP10-11 (11738290_x_at) / Fold change /veh KRTAP10-11 (11738290_x_at) / RFU MYO3A (11730013_a_at) / Fold change /veh MYO3A (11730013_a_at) / RFU EBF3 (11725865_a_at) / Fold change /veh EBF3 (11725865_a_at) / RFU CAMK2N1 (11719241_x_at) / Fold change /veh CAMK2N1 (11719241_x_at) / RFU C5orf56 (11738088_a_at) / Fold change /veh C5orf56 (11738088_a_at) / RFU OLFML3 (11715873_a_at) / Fold change /veh OLFML3 (11715873_a_at) / RFU LOC100653217 /// NTM (11731650_a_at) / Fold change /veh LOC100653217 /// NTM (11731650_a_at) / RFU MAPK11 (11762145_a_at) / Fold change /veh MAPK11 (11762145_a_at) / RFU FIZ1 (11724087_x_at) / Fold change /veh FIZ1 (11724087_x_at) / RFU OASL (11726364_x_at) / Fold change /veh OASL (11726364_x_at) / RFU SOX15 (11748057_x_at) / Fold change /veh SOX15 (11748057_x_at) / RFU CD79A (11719716_a_at) / Fold change /veh CD79A (11719716_a_at) / RFU HIST1H1D (11736915_at) / Fold change /veh HIST1H1D (11736915_at) / RFU CASKIN2 (11723855_a_at) / Fold change /veh CASKIN2 (11723855_a_at) / RFU LOC730098 (11760151_x_at) / Fold change /veh LOC730098 (11760151_x_at) / RFU OR4N2 (11742367_at) / Fold change /veh OR4N2 (11742367_at) / RFU PRRT2 (11749266_a_at) / Fold change /veh PRRT2 (11749266_a_at) / RFU SNX32 (11753110_a_at) / Fold change /veh SNX32 (11753110_a_at) / RFU CDHR5 (11726645_a_at) / Fold change /veh CDHR5 (11726645_a_at) / RFU RCAN1 (11760418_a_at) / Fold change /veh RCAN1 (11760418_a_at) / RFU FAM167A (11723789_a_at) / Fold change /veh FAM167A (11723789_a_at) / RFU FAM26E (11764081_at) / Fold change /veh FAM26E (11764081_at) / RFU ISYNA1 (11749810_s_at) / Fold change /veh ISYNA1 (11749810_s_at) / RFU ACY1 (11761880_at) / Fold change /veh ACY1 (11761880_at) / RFU 11764098_at / Fold change /veh 11764098_at / RFU SAMD14 (11745864_x_at) / Fold change /veh SAMD14 (11745864_x_at) / RFU NPB (11741838_a_at) / Fold change /veh NPB (11741838_a_at) / RFU TMPRSS6 (11731388_a_at) / Fold change /veh TMPRSS6 (11731388_a_at) / RFU KRTAP10-2 (11738614_at) / Fold change /veh KRTAP10-2 (11738614_at) / RFU ARHGAP8 /// PRR5-ARHGAP8 (11727945_x_at) / Fold change /veh ARHGAP8 /// PRR5-ARHGAP8 (11727945_x_at) / RFU KRTAP5-7 /// NADSYN1 (11734609_at) / Fold change /veh KRTAP5-7 /// NADSYN1 (11734609_at) / RFU RASL12 (11751679_a_at) / Fold change /veh RASL12 (11751679_a_at) / RFU CDKN2B (11736163_a_at) / Fold change /veh CDKN2B (11736163_a_at) / RFU PRF1 (11729649_at) / Fold change /veh PRF1 (11729649_at) / RFU, ZNF638 /// ZNF638-IT1 / Fold change vs veh, ZNF638 /// ZNF638-IT1 / RFU, PANK3 / Fold change vs veh, PANK3 / RFU, SH3YL1 / Fold change vs veh, SH3YL1 / RFU, ZEB2 / Fold change vs veh, ZEB2 / RFU, NRIP1 / Fold change vs veh, NRIP1 / RFU, PTTG1IP / Fold change vs veh, PTTG1IP / RFU, CAPN2 / Fold change vs veh, CAPN2 / RFU, MED14 / Fold change vs veh, MED14 / RFU, SNORA58 / Fold change vs veh, SNORA58 / RFU, C1orf63 / Fold change vs veh, C1orf63 / RFU, LRRFIP1 / Fold change vs veh, LRRFIP1 / RFU, NDUFAF7 / Fold change vs veh, NDUFAF7 / RFU, SLC12A2 / Fold change vs veh, SLC12A2 / RFU, IBTK / Fold change vs veh, IBTK / RFU, ESF1 / Fold change vs veh, ESF1 / Fold change vs veh, TMEM50B / RFU, TAOK1 / Fold change vs veh, TAOK1 / RFU, ACBD3 / Fold change vs veh, ACBD3 / RFU, TMA16 / Fold change vs veh, TMA16 / RFU, RWDD3 / Fold change vs veh, RWDD3 / RFU, BCAT1 / Fold change vs veh, BCAT1 / RFU, EDEM3 / Fold change vs veh, EDEM3 / RFU, TMEM33 / Fold change vs veh, TMEM33 / RFU, WDR75 / Fold change vs veh, WDR75 / RFU, AHCTF1 / Fold change vs veh, AHCTF1 / RFU, TFRC / Fold change vs veh, TFRC / RFU, ZDHHC17 / Fold change vs veh, ZDHHC17 / RFU, NOM1 / Fold change vs veh, NOM1 / RFU, ARL8B / Fold change vs veh, ARL8B / RFU, ZBTB11 / Fold change vs veh, ZBTB11 / RFU, TAMM41 / Fold change vs veh, TAMM41 / RFU, KIAA1704 /// LOC100996395 / Fold change vs veh, KIAA1704 /// LOC100996395 / RFU, ING1 / Fold change vs veh, ING1 / RFU, TRMT61B / Fold change vs veh, TRMT61B / RFU, FUBP3 / Fold change vs veh, FUBP3 / RFU, TP53 / Fold change vs veh, TP53 / RFU, TNKS2 / Fold change vs veh, TNKS2 / RFU, ZFP14 / Fold change vs veh, ZFP14 / RFU, ACTR2 / Fold change vs veh, ACTR2 / RFU, PPP3R1 / Fold change vs veh, PPP3R1 / RFU, PIK3R1 / Fold change vs veh, PIK3R1 / RFU, HNRNPA1 / Fold change vs veh, HNRNPA1 / RFU, RNF170 / Fold change vs veh, RNF170 / RFU, ZNF28 / Fold change vs veh, ZNF28 / RFU, RNGTT / Fold change vs veh, RNGTT / RFU, OGT / Fold change vs veh, OGT / RFU, BRD1 / Fold change vs veh, BRD1 / RFU, MARS / Fold change vs veh, MARS / RFU, ZNF655 / Fold change vs veh, ZNF655 / RFU, FAHD1 / Fold change vs veh, FAHD1 / RFU, BDP1 / Fold change vs veh, BDP1 / RFU, LRRCC1 / Fold change vs veh, LRRCC1 / RFU, ARID1A / Fold change vs veh, ARID1A / RFU, ZNF146 / Fold change vs veh, ZNF146 / RFU, ZNF330 / Fold change vs veh, ZNF330 / RFU, GPN3 / Fold change vs veh, GPN3 / RFU, C9orf123 / Fold change vs veh, C9orf123 / RFU, N4BP2L2 / Fold change vs veh, N4BP2L2 / RFU, ARFIP1 / Fold change vs veh, ARFIP1 / RFU, FAM179B / Fold change vs veh, FAM179B / RFU, BCL10 / Fold change vs veh, BCL10 / RFU, UHRF1BP1L / Fold change vs veh, UHRF1BP1L / RFU, BET1 / Fold change vs veh, BET1 / RFU, CNOT2 / Fold change vs veh, CNOT2 / RFU, ZNF268 / Fold change vs veh, ZNF268 / Fold change vs veh, ZNF507 / RFU, DGCR2 / Fold change vs veh, DGCR2 / RFU, WDSUB1 / Fold change vs veh, WDSUB1 / Fold change vs veh, HSP90B1 /// MIR3652 / RFU, ADSS / Fold change vs veh, ADSS / RFU, GK / Fold change vs veh, GK / RFU, ZNF148 / Fold change vs veh, ZNF148 / RFU, TAF9 / Fold change vs veh, TAF9 / RFU, SLC1A5 / Fold change vs veh, SLC1A5 / RFU, SLMO2 / Fold change vs veh, SLMO2 / RFU, ABCC4 / Fold change vs veh, ABCC4 / RFU, LOC101060439 /// RAP1B / Fold change vs veh, LOC101060439 /// RAP1B / RFU, RFX7 / Fold change vs veh, RFX7 / RFU, GTPBP10 / Fold change vs veh, GTPBP10 / RFU, CNEP1R1 / Fold change vs veh, CNEP1R1 / RFU, BIVM-ERCC5 /// ERCC5 / Fold change vs veh, BIVM-ERCC5 /// ERCC5 / RFU, ILF3 / Fold change vs veh, ILF3 / RFU 11762660_at / Fold change /veh 11762660_at / RFU VCAN (11757783_s_at) / Fold change /veh VCAN (11757783_s_at) / RFU DDX43 (11728927_at) / Fold change /veh DDX43 (11728927_at) / RFU KRT8 (11758188_x_at) / Fold change /veh KRT8 (11758188_x_at) / RFU NKD1 (11759106_at) / Fold change /veh NKD1 (11759106_at) / RFU SRD5A1 (11742802_a_at) / Fold change /veh SRD5A1 (11742802_a_at) / RFU TPSAB1 /// TPSB2 (11721975_s_at) / Fold change /veh TPSAB1 /// TPSB2 (11721975_s_at) / RFU GSTM3 (11746129_a_at) / Fold change /veh GSTM3 (11746129_a_at) / RFU IL23R (11737362_x_at) / Fold change /veh IL23R (11737362_x_at) / RFU TMEM51 (11727254_a_at) / Fold change /veh TMEM51 (11727254_a_at) / RFU PIWIL2 (11732686_x_at) / Fold change /veh PIWIL2 (11732686_x_at) / RFU ORM1 (11744905_x_at) / Fold change /veh ORM1 (11744905_x_at) / RFU CCDC152 (11743942_at) / Fold change /veh CCDC152 (11743942_at) / RFU ECM1 (11717891_a_at) / Fold change /veh ECM1 (11717891_a_at) / RFU IL23R (11748794_a_at) / Fold change /veh IL23R (11748794_a_at) / RFU TNFAIP8L3 (11732012_x_at) / Fold change /veh TNFAIP8L3 (11732012_x_at) / RFU MBOAT4 (11741988_at) / Fold change /veh MBOAT4 (11741988_at) / RFU 11764193_at / Fold change /veh 11764193_at / RFU TMEM53 (11763286_at) / Fold change /veh TMEM53 (11763286_at) / RFU MAGEB2 (11727129_at) / Fold change /veh MAGEB2 (11727129_at) / RFU TMEM200A (11744735_a_at) / Fold change /veh TMEM200A (11744735_a_at) / RFU CCDC152 (11751479_a_at) / Fold change /veh CCDC152 (11751479_a_at) / RFU FAM211A (11726209_a_at) / Fold change /veh FAM211A (11726209_a_at) / RFU RGS16 (11746705_a_at) / Fold change /veh RGS16 (11746705_a_at) / RFU VCAN (11755009_s_at) / Fold change /veh VCAN (11755009_s_at) / RFU RHOB (11743442_s_at) / Fold change /veh RHOB (11743442_s_at) / RFU RGS16 (11720943_a_at) / Fold change /veh RGS16 (11720943_a_at) / RFU RGS16 (11720944_at) / Fold change /veh RGS16 (11720944_at) / RFU, VPS4B / Fold change vs veh, VPS4B / RFU, CREB1 / Fold change vs veh, CREB1 / RFU, DNAJC13 / Fold change vs veh, DNAJC13 / RFU, GNAQ / Fold change vs veh, GNAQ / RFU, CDK5R1 / Fold change vs veh, CDK5R1 / RFU, ZRANB3 / Fold change vs veh, ZRANB3 / RFU, CUL4A / Fold change vs veh, CUL4A / RFU, CCNY / Fold change vs veh, CCNY / RFU, UFL1 / Fold change vs veh, UFL1 / RFU, COG3 / Fold change vs veh, COG3 / RFU, DIAPH2 / Fold change vs veh, DIAPH2 / RFU, SKA2 / Fold change vs veh, SKA2 / RFU, AFF3 / Fold change vs veh, AFF3 / RFU, LMF1 / Fold change vs veh, LMF1 / RFU, IPO11 / Fold change vs veh, IPO11 / RFU, DFFB / Fold change vs veh, DFFB / RFU, FOXP1 / Fold change vs veh, FOXP1 / RFU, CARD8 / Fold change vs veh, CARD8 / RFU, STRN3 / Fold change vs veh, STRN3 / RFU, ADK / Fold change vs veh, ADK / RFU, RASSF2 / Fold change vs veh, RASSF2 / RFU, WIPF1 / Fold change vs veh, WIPF1 / RFU, LARP1B / Fold change vs veh, LARP1B / RFU, RASA1 / Fold change vs veh, RASA1 / RFU, RB1 / Fold change vs veh, RB1 / RFU, PPFIA1 / Fold change vs veh, PPFIA1 / RFU, MAT2A / Fold change vs veh, MAT2A / RFU, CCT5 / Fold change vs veh, CCT5 / RFU, WDR92 / Fold change vs veh, WDR92 / RFU, CUX1 / Fold change vs veh, CUX1 / RFU, TTC7A / Fold change vs veh, TTC7A / RFU, TMEM135 / Fold change vs veh, TMEM135 / RFU, DEPTOR / Fold change vs veh, DEPTOR / RFU, CPM / Fold change vs veh, CPM / RFU, DNAJB6 / Fold change vs veh, DNAJB6 / RFU, CACNA2D3 / Fold change vs veh, CACNA2D3 / RFU, DTX4 / Fold change vs veh, DTX4 / RFU, TFCP2 / Fold change vs veh, TFCP2 / RFU, GMCL1 /// GMCL1P1 / Fold change vs veh, GMCL1 /// GMCL1P1 / RFU, AEBP2 / Fold change vs veh, AEBP2 / RFU, SNHG1 /// SNORD22 /// SNORD25 /// SNORD26 /// SNORD27 /// SNORD28 /// SNORD29 /// SNORD31 / Fold change vs veh, SNHG1 /// SNORD22 /// SNORD25 /// SNORD26 /// SNORD27 /// SNORD28 /// SNORD29 /// SNORD31 / Fold change (Aza/veh), C12orf56 (ProbeSet 11735607_a_at) / Fold change (ACY-1035/veh), C12orf56 (ProbeSet 11735607_a_at) / Fold change (Aza/veh), FGFR1OP (ProbeSet 11751329_s_at) / Fold change (ACY-1035/veh), FGFR1OP (ProbeSet 11751329_s_at) / Fold change (Aza/veh), VPS36 (ProbeSet 11739960_a_at) / Fold change (ACY-1035/veh), VPS36 (ProbeSet 11739960_a_at) / RFU SYPL1 (11715823_x_at) / Fold change /veh SYPL1 (11715823_x_at) / RFU IGFBP7 (11715501_s_at) / Fold change /veh IGFBP7 (11715501_s_at) / RFU REEP3 (11722064_at) / Fold change /veh REEP3 (11722064_at) / RFU IGLL1 (11728026_x_at) / Fold change /veh IGLL1 (11728026_x_at): dose or concentration left out as unconfirmed
Conditions: ProbeSet 11725901_x_at; LIST B

## Nc1ccc(-c2cccs2)cc1NC(=O)c1ccc2c(c1)cc(C1CC1)n2CCN1CCOCC1 [ACY-1035]
  Fold change vs veh, RWDD3: 0.90

Source: PMC5218480 (PLoS ONE, 2017)
